Measured values from US20030109567A1, “Novel angiogenesis inhibitor” (RIKEN, priority 2001, published 2003).

Experiment: Solubility (physicochemical properties)
Experimental: The syrup was dissolved in chloroform 10 ml and applied to a silica gel column charged with chloroform (4 cm diameter, 60 cm length). Initially, elution was performed with chloroform 500 ml, then with each 500 ml of a chloroform/methanol solution having a successively changed mixing ratio (100:0, 100:2, 50:1, 20:1, 10:1, 5:1, 1:1). The compound of the present invention, RKB-3134A, was eluted in a fraction with the chloroform/methanol solution (50:1). The fraction was concentrated under reduced pressure to give a brown syrup 1.4 g. Then, the brown syrup 1.4 g was dissolved in a methanol/acetonitrile solution (1:1, 14 ml) and made into aliquots, and purified by high performance liquid chromatography (acetonitrile : water=2:8→acetonitrile : water=1:1; linear gradient (30 minutes), flow rate 9.0 ml/min) using a reverse phase ODS column (2 cm diameter, 25 cm length, PEGASIL ODS, Senshu Kagaku Co.) to give RKB-3134A. Recrystallization was further carried out from a mixed solvent of hexane/ethyl acetate/methanol to give a pure RKB-3134A (90 mg) as pale yellow powder. Physicochemical properties of RKB-3134A are shown below.
Insoluble in n-hexane or water.

Solubility in methanol, acetone, or dimethyl sulfoxide (solvent: methanol, acetone, or dimethyl sulfoxide): easily soluble
Solubility in n-hexane or water (solvent: n-hexane or water): Insoluble
SMILES: CC/C=C/C=C/C1=C(C)C(=O)C2(O1)C(=O)NC(O)(Cc1ccccc1)C2O (centres unmarked) [RKB-3134A]
